This is an account of results in patent US20130324522A1, “INSECT ODORANT RECEPTOR ANTAGONISTS” (THE ROCKEFELLER UNIVERSITY, priority 2010, published 2013).

Where only a bound is given, the exact number is not on record here.

Test [1] deals with T1, serotonin receptor (5HT3) (Mus musculus, UniProt P23979).
T1 construct: Full-length cDNAs for mosquito (Anopheles gambiae) odorant receptor; expressed in transfected cells
T1 sequence (P23979 24-489): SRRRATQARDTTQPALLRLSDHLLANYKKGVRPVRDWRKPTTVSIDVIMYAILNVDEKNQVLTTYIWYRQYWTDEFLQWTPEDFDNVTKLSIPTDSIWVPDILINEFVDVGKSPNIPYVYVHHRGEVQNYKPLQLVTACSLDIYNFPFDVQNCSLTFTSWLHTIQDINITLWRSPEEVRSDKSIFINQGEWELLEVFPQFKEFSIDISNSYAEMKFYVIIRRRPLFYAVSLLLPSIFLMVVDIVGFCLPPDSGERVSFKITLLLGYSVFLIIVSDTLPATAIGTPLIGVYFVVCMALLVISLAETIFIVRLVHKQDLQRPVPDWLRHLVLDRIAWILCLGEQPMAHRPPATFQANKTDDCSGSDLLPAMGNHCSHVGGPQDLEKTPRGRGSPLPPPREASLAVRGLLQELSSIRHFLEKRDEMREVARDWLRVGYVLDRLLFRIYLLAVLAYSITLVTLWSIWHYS
The experiment in a line: Ca2+-imaging of stable Flip-In T-Rex cell line 5HT3. As to conditions: for inhibition at 4 µM: compound applied at 4 μM, read-out: Percent Inhibition 5HT3; for IC50: Table B, read-out: IC50 5HT3. The format is cell-based. The gist of the method: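 Calcium responses were read on an FDSS6000 (485 nm excitation, 525 nm emission) after Ca-4 loading for 1.5 h at room temperature. Cells were tetracycline-induced Flp-In T-REx lines stably carrying fly Or47a/Or83b or mouse 5HT3, plated 2 days ahead; compounds were co-delivered in HBSS odorant solution.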

A further test has as its target OR8/OR7 (Anopheles gambiae, UniProt Q7PUT5+Q7QCC7). The experiment in a line: Ca2+-imaging of stable HEK293T cell line OR8/OR7. The class given is cell-based. As to conditions: for inhibition at 4 µM: HEK-293T, compound applied at 4 μM, read-out: Percent Inhibition OR8 OR7; for IC50: Table B, read-out: IC50 OR8. In short, it runs like this: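 Odorant solutions were prepared in HBSS at 9× final, with test compounds transferred in from […] DMSO stocks. These mixtures were applied to dye-loaded HEK293T stable receptor lines, and calcium responses were recorded in real time.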

OR8/OR7, sequence (Q7QCC7 whole entry): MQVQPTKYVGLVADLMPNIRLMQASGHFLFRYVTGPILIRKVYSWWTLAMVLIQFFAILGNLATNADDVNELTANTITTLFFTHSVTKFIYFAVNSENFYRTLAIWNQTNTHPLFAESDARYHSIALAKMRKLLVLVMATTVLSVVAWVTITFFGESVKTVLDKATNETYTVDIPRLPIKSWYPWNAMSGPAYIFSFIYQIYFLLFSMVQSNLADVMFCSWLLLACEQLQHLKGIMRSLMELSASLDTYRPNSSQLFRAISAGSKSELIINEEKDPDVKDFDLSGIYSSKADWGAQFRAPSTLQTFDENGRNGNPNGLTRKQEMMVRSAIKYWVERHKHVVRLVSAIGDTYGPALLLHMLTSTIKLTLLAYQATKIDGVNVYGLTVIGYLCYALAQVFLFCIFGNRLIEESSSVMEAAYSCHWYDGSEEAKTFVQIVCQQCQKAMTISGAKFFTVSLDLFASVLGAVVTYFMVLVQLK
OR8/OR7, sequence (Q7PUT5 entry or part of it): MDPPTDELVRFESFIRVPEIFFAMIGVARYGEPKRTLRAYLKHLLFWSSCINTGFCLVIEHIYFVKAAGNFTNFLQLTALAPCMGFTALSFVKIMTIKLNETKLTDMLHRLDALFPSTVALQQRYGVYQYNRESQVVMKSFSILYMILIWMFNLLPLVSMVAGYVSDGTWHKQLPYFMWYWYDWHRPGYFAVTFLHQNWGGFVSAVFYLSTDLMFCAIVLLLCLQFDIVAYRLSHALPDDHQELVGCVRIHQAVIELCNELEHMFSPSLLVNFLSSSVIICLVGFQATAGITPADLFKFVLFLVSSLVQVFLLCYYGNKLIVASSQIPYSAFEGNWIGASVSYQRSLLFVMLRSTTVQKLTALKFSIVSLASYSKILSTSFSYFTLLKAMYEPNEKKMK

For orientation: inhibition means the change of the read-out against control, counted positive when it falls. Consider `CCN(CC)C(=O)Oc1ccc2c(ccn2Cc2cccc(C)c2)c1NC(=O)[C@H](C)OC(C)=O` [RU-0075468], for which the inhibition at 4 µM (in test [1]; on OR8/OR7) was under 25% in each case.

As a reminder, the IC50 is the concentration that gives 50% inhibition. For `Cc1ccc(CN(Cc2ccc(F)cc2)C(=O)CN(C(=O)NC(C)(C)C)C2CC2)s1` [RU-0052360], the inhibition at 4 µM is under 25% in test [1] and 51 to 74% at OR8/OR7. At OR8/OR7, the IC50 is over 1 µM.

For `CCOc1ccccc1C(=O)NNC(=O)COc1cc(C)cc(C)c1` [RU-0023245], the inhibition at 4 µM in test [1] was in the range of 26 to 50%.

Take `COc1ccc(N2CCN(C(=O)C3CC=CCC3C(=O)NC(c3ccccc3)c3ccccn3)CC2)cc1` (stereo not drawn) [RU-0026507]: the inhibition at 4 µM is 26 to 50% in test [1] and under 25% on OR8/OR7.

For the compound `COc1ccc(N2CCN(C(=O)C3CC=CCC3C(=O)NCCCCc3ccccc3)CC2)cc1` (stereo not drawn) [RU-0026167], the inhibition at 4 µM was under 25% in test [1] and 26 to 50% at OR8/OR7.

As for `COc1ccc(-c2nnc(SCc3ccc(C#N)cc3)n2-c2ccc(C)cc2)cc1` [RU-0046426], the inhibition at 4 µM (in test [1]; on OR8/OR7) was 26 to 50% throughout.

As to `COc1ccc(C(=O)c2ccccc2)c(O)c1O` [RU-0001617], the figures for the inhibition at 4 µM (in test [1]; at OR8/OR7) were 26 to 50% and under 25%, respectively.

As for `COCCNC(=O)c1ccc(CSc2nnc(-c3ccc(C)cc3)n2-c2ccccc2F)cc1` [RU-0051652], the values for the inhibition at 4 µM (in test [1]; at OR8/OR7) were 26 to 50% and under 25%, respectively.

Consider `CCOCCCN(CC(=O)N(Cc1ccc2c(c1)OCO2)Cc1sccc1C)C(=O)NC(C)(C)C` [RU-0052340], for which the inhibition at 4 µM (in test [1]; at OR8/OR7) was under 25% each time.

For the compound `COc1ccccc1N1CCN(C(=O)c2cc3n(n2)CCN(Cc2c(F)cccc2Cl)C3=O)CC1` [RU-0043595], in test [1], the half-inhibitory concentration (IC50) was over 1 µM and the inhibition at 4 µM was in the range of 51 to 74%. For the same compound, the inhibition at 4 µM at OR8/OR7 was in the range of 26 to 50%.

Consider `Cc1cc(C)c2c(c1C(=O)N1CCC3(CC1)C(=O)NCN3c1ccccc1)CC(C)(C)C2=O` [RU-0025771], for which the inhibition at 4 µM in test [1] fell in the range of 26 to 50%.

As to `COCCCN(CC(=O)N1CCc2sccc2C1COc1cccc(OC)c1)C(=O)Cc1ccccc1` (stereo not drawn) [RU-0036264], the inhibition at 4 µM in test [1] is under 25%; on OR8/OR7, 26 to 50%.

As for `Cc1ccc(-n2nc(C)c(CCC(=O)N3CCc4ccccc4C3)c2C)cc1Cl` [RU-0026074], the inhibition at 4 µM in test [1] is under 25%.

For `COc1nc(NC(C)C)nc(NC(C)C)n1` [RU-0001534], the inhibition at 4 µM (in test [1]; on OR8/OR7) was 26 to 50% throughout.

In the case of `CC(NCc1ccccc1)c1nc2ccccc2c(=O)n1-c1ccc(Cl)cc1` (stereo not drawn) [RU-0072535], the inhibition at 4 µM (in test [1]; on OR8/OR7) was under 25% throughout.

In the case of `Cc1ccc(CN(CCc2ccccc2)C(=O)CN(C(=O)NC(C)(C)C)C(C)C)o1` [RU-0072008], the inhibition at 4 µM (in test [1]; at OR8/OR7) was under 25% throughout.

Regarding `CCOC(=O)C(c1ccc(OC)c(OC)c1)C1C=CC(NC(=O)c2ccc3c(c2)OCO3)C1` (stereo not drawn) [RU-0049030], the inhibition at 4 µM in test [1] was under 25%; at OR8/OR7, 26 to 50%.

With `CC(NC(=O)c1cc2n(n1)CCN(Cc1c(Cl)cccc1Cl)C2=O)c1ccccc1` (stereo not drawn) [RU-0045115], the inhibition at 4 µM (in test [1]; on OR8/OR7) was under 25% throughout.

With `COCCCN(CC(=O)N1CCc2sccc2C1c1ccc(OC)cc1)C(=O)C(C)(C)CCl` (stereo not drawn) [RU-0069950], in test [1], the IC50 is over 1 µM and the inhibition at 4 µM fell in the range of 51 to 74%. Further, the inhibition at 4 µM at OR8/OR7 was 26 to 50%.

Take `CCCCc1nc(CN2CCc3c([nH]c4ccccc34)C2c2cccc(OC)c2OC)c[nH]1` (stereo not drawn) [RU-0031879]: the figures for the inhibition at 4 µM (in test [1]; on OR8/OR7) were under 25% and 26 to 50%, respectively.

Turning to `O=C1CN(S(=O)(=O)c2c(F)cc(F)cc2F)CC2c3cccc(F)c3CCN12` (stereo not drawn) [RU-0076832], the inhibition at 4 µM in test [1] was 26 to 50%; at OR8/OR7, under 25%.

As to `COc1cc(OC)cc(C2NC(=O)N(C)C3=C2C(=O)N(C2CCCCC2)C3)c1` (stereo not drawn) [RU-0047750], the inhibition at 4 µM was 26 to 50% in test [1] and under 25% on OR8/OR7.

Regarding `COc1nc(OCC#N)nc(N2CCCCC2)n1` [RU-0006256], the inhibition at 4 µM in test [1] lay in the range of 26 to 50%. Further, on OR8/OR7, the inhibition at 4 µM was 51 to 74% and the IC50 is over 1 µM.

Consider `CCOC(=O)C(c1cccc(OC)c1)C1C=CC(NC(=O)c2cccs2)C1` (stereo not drawn) [RU-0074560], for which the inhibition at 4 µM (in test [1]; at OR8/OR7) was under 25% throughout.

Consider `COC(=O)C(Cc1ccccc1)NC(=O)C1CC1(c1ccccc1)c1ccccc1` (stereo not drawn) [RU-0028029], for which, in test [1], the inhibition at 4 µM is 26 to 50%. Besides, on OR8/OR7, the inhibition at 4 µM was in the range of 51 to 74% and the half-inhibitory concentration (IC50) was over 1 µM.

For `CN(Cc1ccccc1)C(=O)CCC1CCN(C(=O)CCOc2ccccc2)CC1` [RU-0028727], in test [1], the IC50 is over 1 µM and the inhibition at 4 µM lay within 51 to 74%.

For `CN(C)c1nc(N(C)C)nc(N(C)C)n1` [RU-0000619], the inhibition at 4 µM (in test [1]; at OR8/OR7) was 26 to 50% in each case.

For `COCCCN(CC(=O)N1CCc2sccc2C1COc1cccc(OC)c1)C(=O)c1ccccc1OC` (stereo not drawn) [RU-0036294], the inhibition at 4 µM in test [1] is under 25%. Further, on OR8/OR7, the inhibition at 4 µM is 51 to 74% and the IC50 was over 1 µM.

`C=C[C@@](C)(O)CCC1C(=C)CCC2[C@@](C)(CO)CCC[C@]12C` (stereo partly drawn) [RU-0001327]: the inhibition at 4 µM (in test [1]; on OR8/OR7) was 26 to 50% each time.

With `COCCN(Cc1cc(Cl)ccc1OS(=O)(=O)c1ccc(F)cc1)C(=O)C1CCC1` [RU-0035287], the inhibition at 4 µM (in test [1]; at OR8/OR7) was 26 to 50% each time.
